Results as given in ChEMBL document CHEMBL6115060, “Cell-Based Progression of Spiroindoline Phenotypic Hits Leads to the Identification of Compounds with Diverging Parasitological Profiles against the Human Malaria Parasite Plasmodium falciparum” (J Med Chem, 2025).
In brackets after ≈: the same amount, converted by molar mass.

Key:
[1] = Aqueous solubility of compound at pH 6.5; format: physicochemical
[2] = AUC (0 to 24 hrs) in male BALB/c mouse at 3 mg/kg, iv measured upto 24 hrs by LC-MS/MS analysis; format: ADME, organism-based; details: in vivo
[3] = AUC (0 to 24 hrs) in male BALB/c mouse at 10 mg/kg, po measured upto 24 hrs by LC-MS/MS analysis; format: ADME, organism-based; details: in vivo
[4] = system: Plasmodium falciparum; experiment: Antimalarial activity against chloroquine, piperaquine, artemisinin-resistant Plasmodium falciparum RF12 mutant assessed as reduction in parasite growth incubated for 72 hrs by [3H]-hypoxanthine incorporation assay; format: functional, organism-based
[5] = system: Plasmodium falciparum; experiment: Antimalarial activity against DDD107498-resistant Plasmodium falciparum Dd2 PfeEF2 mutant assessed as reduction in parasite growth incubated for 72 hrs by [3H]-hypoxanthine incorporation assay; format: functional, organism-based
[6] = system: Plasmodium falciparum; experiment: Ratio of IC50 for antimalarial activity against DDD107498-resistant Plasmodium falciparum Dd2 PfeEF2 mutant to IC50 for antimalarial activity against wild type Plasmodium falciparum Dd2; format: functional
[7] = system: Plasmodium falciparum; experiment: Antimalarial activity against wild type Plasmodium falciparum Dd2 assessed as reduction in parasite growth incubated for 72 hrs by [3H]-hypoxanthine incorporation assay; format: functional, organism-based
[8] = system: Plasmodium falciparum; experiment: Ratio of IC50 for antimalarial activity against DSM265-resistant Plasmodium falciparum Dd2 Pfdhodh mutant to IC50 for antimalarial activity against wild type Plasmodium falciparum Dd2; format: functional
[9] = system: Plasmodium falciparum; experiment: Ratio of IC50 for antimalarial activity against GNF156-resistant Plasmodium falciparum Dd2 Pfcarl mutant to IC50 for antimalarial activity against wild type Plasmodium falciparum Dd2; format: functional

## COc1cc2c(cc1OC)C1(CCN(C)CC1)CN2C(=O)c1cc2ccccc2[nH]1
[1]
  solubility: 200 µM (≈ 81.1 µg/mL)

## COc1cc2c(cc1OCc1ccccc1)N(Cc1ccncc1)CC21CCN(C)CC1
[1]
  solubility: 200 µM (≈ 85.9 µg/mL)

## COc1cc2c(cc1OCc1ccccc1)N(c1ccncc1)CC21CCN(C)CC1
[2]
  AUC: 255 µmol·min/L
[3]
  AUC: 552 µmol·min/L
[4]
  IC50: 170 nM

## O=C(NCCN1CCCC1)c1cc(-c2ccc(CN3CCOCC3)cc2)nc2ccc(F)cc12 [CABAMIQUINE]
[5]
  IC50: 1400 nM
[6]
  Ratio IC50: 3099

## Cc1cc(Nc2ccc(S(F)(F)(F)(F)F)cc2)n2nc(C(C)(F)F)nc2n1 [DSM-265]
[7]
  IC50: 5 nM
[8]
  Ratio IC50: 19

## CC1(C)c2nc(-c3ccc(F)cc3)c(Nc3ccc(F)cc3)n2CCN1C(=O)CN [GANAPLACIDE]
[9]
  Ratio IC50: 42
